Structures can show the parent of a compound that is named as a salt.
Assays:
[1] = target: T1, human platelet-induced 12-lipoxygenase (Homo sapiens, UniProt P18054); assay: In-vitro test on inhibitory effect on 12-lipoxygenase (12-HETE formation, absorbance 570 nm); assay type: biochemical; details: compound 10 uM; 30 μM arachidonate; 25° C.; Tris-HCl pH 7.4; read-out: 12-lipoxygenase Inhibitory level at 10 uM (%)
T1 construct: human platelet-induced 12-lipoxygenase as a negative control; from tissue; host or cells: human platelets
T1 sequence (P18054 1-663): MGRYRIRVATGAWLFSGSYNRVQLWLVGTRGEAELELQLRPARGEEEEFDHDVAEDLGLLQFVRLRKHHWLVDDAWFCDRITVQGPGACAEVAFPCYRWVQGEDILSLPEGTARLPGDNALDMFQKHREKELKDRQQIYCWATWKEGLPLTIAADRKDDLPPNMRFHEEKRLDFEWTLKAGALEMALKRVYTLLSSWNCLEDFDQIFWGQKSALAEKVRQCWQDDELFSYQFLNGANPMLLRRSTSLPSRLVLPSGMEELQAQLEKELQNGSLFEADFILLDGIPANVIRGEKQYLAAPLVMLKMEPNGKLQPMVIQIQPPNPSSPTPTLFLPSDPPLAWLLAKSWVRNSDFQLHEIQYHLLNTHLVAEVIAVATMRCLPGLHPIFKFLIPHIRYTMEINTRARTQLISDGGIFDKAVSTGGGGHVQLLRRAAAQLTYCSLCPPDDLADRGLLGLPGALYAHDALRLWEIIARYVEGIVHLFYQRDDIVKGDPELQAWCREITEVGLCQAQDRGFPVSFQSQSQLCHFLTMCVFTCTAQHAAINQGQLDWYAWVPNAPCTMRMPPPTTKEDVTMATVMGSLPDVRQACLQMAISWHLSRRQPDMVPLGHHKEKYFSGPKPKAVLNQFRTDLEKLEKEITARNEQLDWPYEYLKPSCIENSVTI
Description: (§1) 12-lipoxygenase reacts with arachidonate as a substrate to produce 12-hydroxyeicosatetrenoate (12-HETE) as a product. Accordingly, 12-lipoxygenase activity is evaluated by measuring an amount of generated 12-HETE by spectrometry. Also, 15-lipoxygenase reacts with a linolenic acid as a substrate to produce 13-hydroperoxy-9,11-octadecadienoic acid (13-HPODE) as a product. Accordingly, 15-lipoxygenase activity is evaluated by measuring an amount of generated 13-HPODE by spectrometry.
12-lipoxygenase activity was measured when a concentration of each of the compounds was 10 μM. Each sample was pretreated by using a buffer solution (50 mM Tris-HCl, 0.1% Triton X-100, pH 7.4) at a temperature of 25° C. for 15 minutes and then, 30 μM arachidonate (a concentration thereof was controlled to be 30 μM during reaction) was added thereto and reacted at a temperature of 25° C. for 15 minutes, and an amount of 12-HETE as a generated product was measured by absorbance at a wavelength of 570 nm.

[2] = target: T2, rabbit reticulocyte cells-induced 15-lipoxygenase (Oryctolagus cuniculus, UniProt P12530); assay: In-vitro test on inhibitory effect on 15-lipoxygenase (13-HPODE formation, absorbance 660 nm); assay type: biochemical; details: compound 10 uM; 260 μM linolenic acid; 4° C.; PBS pH 7.4; read-out: 15-lipoxygenase Inhibitory level at 10 uM (%)
T2 construct: rabbit reticulocyte cells-induced 15-lipoxygenase as a test group; from tissue; host or cells: rabbit reticulocytes
T2 sequence (P12530 1-663): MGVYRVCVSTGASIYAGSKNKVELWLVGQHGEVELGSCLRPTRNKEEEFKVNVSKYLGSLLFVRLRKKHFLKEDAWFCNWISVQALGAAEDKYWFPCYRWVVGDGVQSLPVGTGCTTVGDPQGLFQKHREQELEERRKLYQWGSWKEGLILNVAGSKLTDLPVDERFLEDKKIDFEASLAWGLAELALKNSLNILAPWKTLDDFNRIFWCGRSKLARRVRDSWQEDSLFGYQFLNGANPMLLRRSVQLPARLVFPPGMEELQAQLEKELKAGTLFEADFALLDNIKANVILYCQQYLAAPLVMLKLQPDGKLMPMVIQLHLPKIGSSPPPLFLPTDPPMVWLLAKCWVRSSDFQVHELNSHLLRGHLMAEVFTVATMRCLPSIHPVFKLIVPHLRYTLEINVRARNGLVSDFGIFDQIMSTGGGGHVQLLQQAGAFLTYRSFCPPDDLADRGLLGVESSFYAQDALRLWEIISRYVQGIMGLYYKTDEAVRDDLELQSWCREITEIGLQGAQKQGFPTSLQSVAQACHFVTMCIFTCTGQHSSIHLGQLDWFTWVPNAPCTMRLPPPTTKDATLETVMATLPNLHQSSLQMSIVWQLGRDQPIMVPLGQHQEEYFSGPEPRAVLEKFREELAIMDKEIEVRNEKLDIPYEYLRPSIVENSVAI
Description: as §1
15-lipoxygenase activity was measured when a concentration of each of the compounds was 10 μM. Each sample was pretreated by using a buffer solution buffer solution (phosphate buffered saline buffer, pH 7.4) at a temperature of 4° C. for 15 minutes, and then 260 μM linolenic acid (a concentration thereof was controlled to be 260 μM during reaction) was added and reacted at a temperature of 4° C. for 10 minutes, and an amount of 13-HPODE as a generated product was measured by absorbance at a wavelength of 660 nm.

fibronectin = assay: Pharmaceutical effect test on diabetic nephropathy: fibronectin expression in renal cortex by real-time RT-PCR; assay type: in vivo, rat; details: streptozotocin-diabetic rats; 200 mg/kg orally once a day for 4 weeks; untreated diabetic 1.4±0.1 times control
Description: Sprague-Dawley rats (n=21, 4 weeks, male) were used as lab models (Central Lab. Animal Inc.). Rats (n=14) having diabetes induced by intraperitoneal administration of 50 mg/kg of streptozotocin were used as a test group, and rats (n=7) intraperitoneally administered with only a solvent (100 mM citric acid buffer solution, pH 4.5) were used as a control. Typically, in rats having diabetes induced by streptozotocin, diabetic nephropathy is induced by hyperglycemia, and one of the symptoms is renal fibrosis, and gene expression of an extracellular matrix protein such as fibronectin is increased. 2 days after the administration of streptozotocin, diabetes was induced in the test group. […]
After the 4-week administration of the compound and PEG, renal cortex tissues were extracted from each of the groups and then, an expression level of fibronectin was measured by a real-time reverse transcription polymerase chain reaction (that is, an amount of mRNA transcribed from fibronectin) (see FIG. 3). The expression level of fibronectin was measured by using a forward primer (5′-[…]-3′; SEQ ID NO: 1) and a reverse primer (5′-[…]-3′; SEQ ID NO: 2). […] For the control, mRNA transcribed from a beta actin gene was used, and measurement results were indicated by dividing an amount of mRNA of fibronectin quantified from the RT-PCT results by an amount of mRNA of beta actin. […]

[3] = system: Sprague-Dawley rats having diabetes induced by streptozotocin; assay: Pharmaceutical effect test on diabetic hyperlipidemia in diabetes animal model (streptozotocin); assay type: in vivo, rat; details: 200 mg/kg orally once a day for four weeks
Description: Sprague-Dawley rats (n=21, 4 weeks, male) were used as lab models (Central Lab. Animal Inc.). Rats (n=14) having diabetes induced by intraperitoneal administration of 50 mg/kg of streptozotocin were used as a test group, and rats (n=7) intraperitoneally administered with only a solvent (100 mM citric acid buffer solution, pH 4.5) were used as a control. Typically, streptozotocin destroys beta cells of the pancreas to induce diabetes, and thus, blood sugar is increased and amounts of cholesterol and triglycerides in serum are increased. 2 days after the administration of streptozotocin, diabetes was induced in the test group. The test group was divided into two groups, and rats of one group were orally administered once a day with 200 mg/kg of (R)-carbamic acid 3-[4-(3,4-dimethoxy-phenyl)-piperazine-1-yl]-3-oxo-1-phenyl-propyl ester for four weeks. The other group was orally administered with 30% polyethylene glycol (PEG) instead of the compound.
After the 4-week administration of the compound and PEG, amounts of total cholesterol and triglycerides in serum of each of the groups were measured and results thereof are shown in FIGS. 1 and 2. In order to measure the amounts of total cholesterol and triglycerides, serum was isolated from the rats and a Hitachi 7600 auto-analyzer was used.

MCP-1 = assay: Pharmaceutical effect test on inflammatory reaction in diabetic nephropathy model: MCP-1 mRNA in renal cortex; assay type: in vivo, rat; details: streptozotocin-diabetic rats; 200 mg/kg orally once a day for 4 weeks; untreated diabetic 3.4±1.0 times control
PAI-1 = assay: Pharmaceutical effect test on inflammatory reaction in diabetic nephropathy model: PAI-1 mRNA in renal cortex; assay type: in vivo, rat; details: streptozotocin-diabetic rats; 200 mg/kg orally once a day for 4 weeks; untreated diabetic 1.8±0.1 times control
TGF-β1 = assay: Pharmaceutical effect test on inflammatory reaction in diabetic nephropathy model: TGF-β1 mRNA in renal cortex; assay type: in vivo, rat; details: streptozotocin-diabetic rats; 200 mg/kg orally once a day for 4 weeks; untreated diabetic 1.6±0.2 times control

| Structure (SMILES) | inhibition at 10 µM [1] [%] | inhibition at 10 µM [2] [%] | other results |
| --- | --- | --- | --- |
| COc1ccc(N2CCN(C(C)CC(OC(N)=O)c3ccccc3)CC2)cc1OC (centres unmarked) [Example 9, carbamic acid 3-[4-(3,4-dimethoxy-phenyl)-piperazine-1-yl]-1-phenyl-butyl ester] | 0 | 62 |  |
| NC(=O)OC(CC(=O)N1CCN(c2ccc3c(c2)OCO3)CC1)c1ccccc1 (centres unmarked) [Example 3, carbamic acid 3-(4-benzo[1,3]dioxol-5-yl-piperazine-1-yl)-3-oxo-1-phenyl-propyl ester] | -8 | 85 |  |
| COc1ccc(N2CCN(C(=O)CC(OC(N)=O)c3ccc([N+](=O)[O-])cc3)CC2)cc1OC (centres unmarked) [Example 5, carbamic acid 3-[4-(3,4-dimethoxy-phenyl)-piperazine-1-yl]-1-(4-nitro-phenyl)-3-oxo-propyl ester] | 0 | 75 |  |
| COc1ccc(N2CCN(C(=O)CC(OC(N)=O)c3ccc(F)cc3)CC2)cc1OC (centres unmarked) [Example 2, carbamic acid 3-[4-(3,4-dimethoxy-phenyl)-piperazine-1-yl]-1-(4-fluoro-phenyl)-3-oxo-propyl ester] | -5 | 69 |  |
| COc1ccc(N2CCN(C(=O)C[C@H](OC(N)=O)c3ccccc3)CC2)cc1OC [Example 7, (S)-carbamic acid 3-[4-(3,4-dimethoxy-phenyl)-piperazine-1-yl]-3-oxo-1-phenyl-propyl ester] | 2 | 69 |  |
| COc1ccc(N2CCN(C(=O)CC(OC(N)=O)c3ccc(C(F)(F)F)cc3)CC2)cc1OC (centres unmarked) [Example 4, carbamic acid 3-[4-(3,4-dimethoxy-phenyl)-piperazine-1-yl]-1-(4-trifluoromethyl-phenyl)-3-oxo-propyl ester; hydrochloride] | 0 | 48 |  |
| COc1ccc(N2CCN(C(=O)CC(OC(N)=O)c3ccc(Cl)cc3)CC2)cc1OC (centres unmarked) [Example 10, carbamic acid 3-[4-(3,4-dimethoxy-phenyl)-piperazine-1-yl]-1-(4-chloro-phenyl)-3-oxo-propyl ester] | 7 | 72 |  |
| COc1ccc(N2CCN(C(=O)C[C@@H](OC(N)=O)c3ccccc3)CC2)cc1OC [Example 8, (R)-carbamic acid 3-[4-(3,4-dimethoxy-phenyl)-piperazine-1-yl]-3-oxo-1-phenyl-propyl ester] | 15 | 79 | expression level of fibronectin of the renal cortex (mRNA / beta actin mRNA) relative to control (fibronectin): 1.2±0.1 times; concentration of total cholesterol in serum ([3]; untreated diabetic 120±13, control 62±5 mg/dl): 66 ± 9 mg/dL; concentration of triglyceride in serum ([3]; untreated diabetic 760±162 mg/dl): 126 ± 44 mg/dL; expression level of MCP-1 gene in the renal cortex relative to control (MCP-1): 1.6±0.3 times; expression level of PAI-1 gene in the renal cortex relative to control (PAI-1): 1.1±0.2 times; expression level of TGF-β1 gene in the renal cortex relative to control (TGF-β1): 1.3±0.2 times |
| COc1ccc(N2CCN(C(=O)CC(OC(N)=O)c3ccccc3)CC2)cc1OC (centres unmarked) [Example 1, carbamic acid 3-[4-(3,4-dimethoxy-phenyl)-piperazine-1-yl]-3-oxo-1-phenyl-propyl ester] | 10 | 73 |  |
| NC(=O)O[C@H](CC(=O)N1CCN(c2ccc(Cl)cc2)CC1)c1ccccc1 [Example 6, (R)-carbamic acid 3-[4-(4-chloro-phenyl)-piperazine-1-yl]-3-oxo-1-phenyl-propyl ester] | 11 | 114 |  |

Reference: patent US8648083B2, “Method of treating diabetic hyperlipidemia or hyperlipidemia with carbamoyloxy arylalkanoyl arylpiperazine compounds” (SK Biopharmaceuticals Co., Ltd., priority 2010, dated 2014)
